Test results as given in US20250145619A1, “KHK INHIBITOR, PREPARATION METHOD THEREFOR AND USE THEREOF” (YOUNGENE THERAPEUTICS CO., LTD, priority 2022, published 2025).

Biological target: KHK—C (Homo sapiens (Human), UniProt P50053)
Test: KHK—C ADP-Glo kinase inhibitory activity assay
Format: biochemical
Conditions: 1 nM KHK—C, 200 μM D-Fructose, 100 μM ATP, ADP-Glo luminescence
Source text: (KHK—C ADP-Glo Kinase Inhibitory Activity Assay)
Y=Bottom+(Top−Bottom)/(1+10^((LogIC50−X)×HillSlope)) • X: Log value of compound concentration • Y: Inhibition ratio (%)
[formula] • Negative control: DMSO

KHK—C, sequence (P50053 whole entry): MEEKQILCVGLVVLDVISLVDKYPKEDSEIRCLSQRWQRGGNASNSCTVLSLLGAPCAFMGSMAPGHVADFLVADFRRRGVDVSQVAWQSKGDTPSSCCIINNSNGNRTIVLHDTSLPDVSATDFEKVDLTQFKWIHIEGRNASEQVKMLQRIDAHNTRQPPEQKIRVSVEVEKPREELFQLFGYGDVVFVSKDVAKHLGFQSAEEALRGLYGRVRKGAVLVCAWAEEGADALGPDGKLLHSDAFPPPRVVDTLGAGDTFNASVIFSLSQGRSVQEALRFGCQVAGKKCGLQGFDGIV

Row | IC50 [nM] | SMILES
1 | 47 | C[C@H]1CCN1c1nc(N2CC(CC(=O)O)C2)c2c(n1)C(F)(F)CC2 [Example 25, (S)-2-(1-(7,7-difluoro-2-(2-methylazetidine-1-yl)-6,7-dihydro-5H-cyclopentadiene[d]pyrimidin-4-yl)azetidine-3-yl)acetic acid]
2 | 110 | C[C@H]1[C@H](O)CN1c1nc(N2CC3(CC(C(=O)O)C3)C2)cc(C(F)(F)F)c1C#N [Example 5, 2-(5-cyano-6-((2S,3R)-3-hydroxy-2-methylazetidine-1-yl)-4-(trifluoromethyl)pyridin-2-yl)-2-azaspiro[3.3]heptan-6-carboxylic acid]
3 | 13.6 | C[C@H]1CCN1c1nc(N2CC[C@H](CC(=O)O)C2)c2c(n1)C(F)(F)CC2 [Example 36, 2-((R)-1-(7,7-difluoro-2-((S)-2-methylazetidine-1-yl)-6,7-dihydro-5H-cyclopentadiene[d]pyrimidin-4-yl)pyrrolidin-3-yl)acetic acid]
4 | 36 | C[C@H]1CCN1c1nc(N2CC3(CCC(C(=O)O)C3)C2)cc(C(F)(F)F)c1C#N (stereo partly drawn) [Example 7, 2-(5-cyano-6-((S)-2-methylazetidine-1-yl)-4-(trifluoromethyl)pyridin-2-yl)-2-azaspiro[3.4]octan-6-carboxylic acid]
5 | 134 | C[C@H]1[C@H](O)CN1c1nc(N2CC3(CC(C(=O)O)C3)C2)c2c(n1)C(F)(F)CC2 [Example 31, 2-(7,7-difluoro-2-((2S,3R)-3-hydroxy-2-methylazetidine-1-yl)-6,7-dihydro-5H-cyclopentadiene[d]pyrimidin-4-yl)-2-azaspiro[3.3]heptan-6-carboxylic acid]
6 | 52.8 | C[C@H]1CCN1c1nc(N2CCC(CC(=O)O)CC2)c2c(n1)C(F)(F)CC2 [Example 33, (S)-2-(1-(7,7-difluoro-2-(2-methylazetidine-1-yl)-6,7-dihydro-5H-cyclopentadiene[d]pyrimidin-4-yl)piperidin-4-yl)acetic acid]
7 | 142 | C[C@H]1CCN1c1nc(N2CC3CN(CC(=O)O)CC3C2)c2c(n1)C(F)(F)CC2 (stereo partly drawn) [Example 35, 2-(5-(7,7-difluoro-2-((S)-2-methylazetidine-1-yl)-6,7-dihydro-5H-cyclopentadiene[c]pyrimidin-4-yl)hexahydropyrrolo[3,4-c]pyrrolo-2(1H)-yl)acetic acid]
8 | 15.4 | C[C@H]1CCN1c1nc(N2CC[C@H](CCC(=O)O)C2)cc(C(F)(F)F)c1C#N [Example 20, 3-((S)-1-(5-cyano-6-((S)-2-methylazetidine-1-yl)-4-(trifluoromethyl)pyridin-2-yl)pyrrolidin-3-yl)propionic acid]
9 | 100 | C[C@@H](C(=O)O)[C@H]1[C@@H]2CN(c3cc(C(F)(F)F)c(C#N)c(N4CC[C@@H]4C)n3)C[C@@H]21 [Example 18, (R)-2-((1R,5S,6R)-3-(5-cyano-6-((S)-2-methylazetidine-1-yl)-4-(trifluoromethyl)pyridin-2-yl)-3-azabicyclo[3.1.0]hexan-6-yl)propionic acid]
10 | 12.6 | C[C@H]1CCN1c1nc(N2CCC(CCC(=O)O)C2)cc(C(F)(F)F)c1C#N (stereo partly drawn) [Example 11, 3-(1-(5-cyano-6-((S)-2-methylazetidine-1-yl)-4-(trifluoromethyl)pyridin-2-yl)pyrrolidin-3-yl)propionic acid]
11 | 0.17 | C[C@H]1CCN1c1nc(N2C[C@@H]3[C@@H](CC(=O)O)[C@@H]3C2)cc(C(F)(F)F)c1C#N [Example 8, 2-((1R,5S,6R)-3-(5-cyano-6-((S)-2-methylazetidine-1-yl)-4-(trifluoromethyl)pyridin-2-yl)-3-azabicyclo[3.1.0]hexan-6-yl)acetic acid]

The next lines start with the compound.

Row | SMILES | IC50 [nM]
12 | C[C@H]1CCN1c1nc(N2CCC3(CC2)CC(C(=O)O)C3)cc(C(F)(F)F)c1C#N [Example 3, (S)-7-(5-cyano-6-(2-methylazetidine-1-yl)-4-(trifluoromethyl)pyridin-2-yl)-7-azaspiro[3.5]nonan-2-carboxylic acid] | 115
13 | C[C@H]1CCN1c1nc(N2CC[C@H](CC(=O)O)C2)cc2nccnc12 [Example 41, 2-((R)-1-(5-((S)-2-methylazetidine-1-yl)pyridino[3,4-b]pyrazin-7-yl)pyrrolidin-3-yl)acetic acid] | 3940
14 | CC(C(=O)O)[C@H]1[C@@H]2CN(c3cc(C(F)(F)F)c(C#N)c(N4CC[C@@H]4C)n3)C[C@@H]21 (stereo partly drawn) [Example 10, (R)-2-((1R,5S,6R)-3-(5-cyano-6-((S)-2-methylazetidine-1-yl)-4-(trifluoromethyl)pyridin-2-yl)-3-azabicyclo[3.1.0]hexan-6-yl)propionic acid] | 12.6
15 | C[C@H]1CCN1c1nc(N2CC3(CC(CC(=O)O)C3)C2)cc(C(F)(F)F)c1C#N [Example 9, (S)-2-(2-(5-cyano-6-(2-methylazetidine-1-yl)-4-(trifluoromethyl)pyridin-2-yl)-2-azaspiro[3.3]heptan-6-yl)acetic acid] | 27
16 | C[C@H]1CCN1c1nc(N2C[C@@H]3[C@@H](CC(=O)O)[C@@H]3C2)cc2nc(C#N)cnc12 [Example 46, 2-((1R,5S,6R)-3-(2-cyano-5-((S)-2-methylazetidine-1-yl)pyridino[3,4-b]pyrazin-7-yl)-3-azabicyclo[3.1.0]hexan-6-yl)acetic acid] | 30.2
17 | C[C@H]1CCN1c1nc(N2CC3(CN(CC(=O)O)C3)C2)cc(C(F)(F)F)c1C#N [Example 15, (S)-2-(6-(5-cyano-6-(2-methylazetidine-1-yl)-4-(trifluoromethyl)pyridin-2-yl)-2,6-diazaspiro[3.3]heptan-2-yl)acetic acid] | 212
18 | C[C@H]1CCN1c1nc(N2CC3(CCC(C(=O)O)CC3)C2)cc(C(F)(F)F)c1C#N [Example 2, (S)-2-(5-cyano-6-(2-methylazetidine-1-yl)-4-(trifluoromethyl)pyridin-2-yl)-2-azaspiro[3.5]nonan-7-carboxylic acid] | 143
19 | C[C@H](C(=O)O)[C@H]1[C@@H]2CN(c3cc(C(F)(F)F)c(C#N)c(N4CC[C@@H]4C)n3)C[C@@H]21 [Example 19, (S)-2-((1R,5S,6R)-3-(5-cyano-6-((S)-2-methylazetidine-1-yl)-4-(trifluoromethyl)pyridin-2-yl)-3-azabicyclo[3.1.0]hexan-6-yl)propionic acid] | 24.7
20 | C[C@H]1CCN1c1nc(N2CC3(CCC(C(=O)O)C3)C2)c2c(n1)C(F)(F)CC2 (stereo partly drawn) [Example 27, 2-(7,7-difluoro-2-((S)-2-methylazetidine-1-yl)-6,7-dihydro-5H-cyclopentadiene[d]pyrimidin-4-yl)-2-azaspiro[3.4]octan-6-carboxylic acid] | 59
21 | C[C@H]1CCN1c1nc(N2CC[C@@H](CCC(=O)O)C2)cc(C(F)(F)F)c1C#N [Example 21, 3-((R)-1-(5-cyano-6-((S)-2-methylazetidine-1-yl)-4-(trifluoromethyl)pyridin-2-yl)pyrrolidin-3-yl)propionic acid] | 81.2
22 | C[C@H]1CCN1c1nc(N2CC3(C2)CS(=O)(=O)C3)cc(C(F)(F)F)c1C(N)=O [Example 17, (S)-6-(2,2-dioxa-2-thioxa-6-azaspiro[3.3]heptan-6-yl)-2-(2-methylazetidine-1-yl)-4-(trifluoromethyl)nicotinamide] | > 10000
